One test deals with T1, WT CBL-B (36-427) (Homo sapiens, UniProt Q13191).
T1 construct: N-terminal biotinylated WT CBL-B (36-427) and C-CBL (46-435) were captured on a streptavidin (SA) coated sensor chip
In words: Surface Plasmon Resonance (SPR) assay, binding affinity and kinetics, CBL-B. The settings on record: SPR at 10° C., biotinylated WT CBL-B (36-427) on streptavidin chip; geometric mean; read-out: CBL-B SPR Kd (nM) GMean. In short, it runs like this: (§1)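 SPR kinetics at 10° C, run either single-cycle (0.001–1 μM, 3-fold, 6 points, 120 s on, >5400 s off) or multi-cycle (10 points, 2-fold, top 10 or 100 μM, 90 s on). Proteins were N-biotinylated CBL-B (36-427) and C-CBL (46-435) on SA surfaces, in pH 7.2 HEPES, 2% DMSO.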

The target in the next test is T2, C-CBL (residues 46-435) (Homo sapiens, UniProt P22681).
T2 construct: Purified CBL-B (residues 36-427) and C-CBL (residues 46-435) proteins from baculovirus-infected insect cells; made in house; host or cells: baculovirus-infected insect cells
T2 sequence (P22681 46-435): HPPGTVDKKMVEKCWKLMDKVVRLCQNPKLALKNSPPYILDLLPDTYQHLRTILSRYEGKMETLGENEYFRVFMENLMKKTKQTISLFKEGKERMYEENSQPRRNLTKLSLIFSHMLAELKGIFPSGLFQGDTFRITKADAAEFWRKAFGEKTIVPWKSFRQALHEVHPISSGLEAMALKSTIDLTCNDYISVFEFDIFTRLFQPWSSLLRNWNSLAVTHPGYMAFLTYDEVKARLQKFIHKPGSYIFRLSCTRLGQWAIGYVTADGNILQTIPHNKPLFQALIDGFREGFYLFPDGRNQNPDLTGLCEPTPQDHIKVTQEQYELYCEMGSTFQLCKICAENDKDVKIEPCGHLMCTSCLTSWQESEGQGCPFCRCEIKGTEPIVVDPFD
In words: Ligand Displacement Assay (LDA), HTRF competitive binding against BODIPY-labeled fluorescent tracer, C-CBL. The settings on record: geometric mean of the number of tests, read-out: C-CBL Ki (nM) GMean. A digest of the protocol: (§2)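 Ki values, given as geometric means of repeated tests, come from TR-FRET displacement of a BODIPY-labelled tracer from terbium-streptavidin-bound, AviTag-biotinylated protein made in baculovirus-infected insect cells. Compounds ran as three-fold dilutions in duplicate, […], 2% DMSO.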

Another test deals with T3, CBL-B (residues 36-427) (Homo sapiens, UniProt Q13191).
T3 construct: Purified CBL-B (residues 36-427) and C-CBL (residues 46-435) proteins from baculovirus-infected insect cells; made in house; host or cells: baculovirus-infected insect cells
In words: Ligand Displacement Assay (LDA), HTRF competitive binding against BODIPY-labeled fluorescent tracer, CBL-B. The settings on record: geometric mean of the number of tests, read-out: CBL-B Ki (nM) GMean. In short, it runs like this: as §2

A further test addresses T4, C-CBL (46-435) (Homo sapiens, UniProt P22681).
T4 construct: N-terminal biotinylated WT CBL-B (36-427) and C-CBL (46-435) were captured on a streptavidin (SA) coated sensor chip
T4 sequence (P22681 46-435): T2 sequence (P22681 46-435)
In words: Surface Plasmon Resonance (SPR) assay, binding affinity and kinetics, C-CBL. The settings on record: SPR at 10° C., biotinylated C-CBL (46-435) on streptavidin chip; geometric mean; read-out: C-CBL SPR Kd (nM) GMean. A digest of the protocol:
as §1

The structures appear in SMILES notation.

Usually Kd stands for the free concentration of one partner at which half of the binding sites on the other are occupied at equilibrium, for simple one-to-one binding. Usually Ki stands for the dissociation constant of the complex between target and ligand, obtained from inhibition or displacement. `CCNCc1nc(C(F)(F)F)cc2c(-c3cccc(C4(Cc5nncn5C)COC4)c3)n[nH]c12` [Example C56, N-{[3-(3-{3-[(4-methyl-4H-1,2,4-triazol-3-yl)methyl]oxetan-3-yl}phenyl)-5-(trifluoromethyl)-1H-pyrazolo[3,4-c]pyridin-7-yl]methyl}ethanamine]: the values for the Kd at WT CBL-B (36-427) and at C-CBL (46-435) were 11 nM and 150 nM, respectively. For the same compound, the Ki on C-CBL (residues 46-435) was 201 nM; at CBL-B (residues 36-427) it was 43.6 nM.
With `Cn1cnnc1[C@@H](c1cccc(-c2n[nH]c3c(CN4CCNCC4)nc(C(F)(F)F)cc23)c1)C1CCC1` [Example D84], the Kd at WT CBL-B (36-427) stood at 5.6 nM; at C-CBL (46-435), 148 nM. For the same compound, the values for the Ki on C-CBL (residues 46-435) and on CBL-B (residues 36-427) were 144 nM and 21.9 nM, respectively.
As to `C[C@@H](c1nc(C(F)(F)F)cc2c(-c3cccc(C4(Cc5nncn5C)COC4)c3)n[nH]c12)N1CC(F)C1` (single isomer, unassigned) [Example D43], the Kd at WT CBL-B (36-427) stood at 6.7 nM; on C-CBL (46-435), 80.2 nM. In addition, the Ki at C-CBL (residues 46-435) turned out to be 75.1 nM; at CBL-B (residues 36-427) it was 14.5 nM.
On the same counts, the results for `CNc1nc(C(F)(F)F)cc2c(-c3cccc(C4(Cc5nncn5C)COC4)c3)n[nH]c12` [Example J8, N-methyl-3-(3-{3-[(4-methyl-4H-1,2,4-triazol-3-yl)methyl]oxetan-3-yl}phenyl)-5-(trifluoromethyl)-1H-pyrazolo[3,4-c]pyridin-7-amine] are 16.1 nM, 136 nM, 251 nM and 69.3 nM.
As to `Cn1cnnc1[C@@H](c1cccc(-c2n[nH]c3c(CNC4CCC4)nc(C(F)(F)F)cc23)c1)C1CCC1` [Example C105, N-{[3-{3-[(R)-cyclobutyl(4-methyl-4H-1,2,4-triazol-3-yl)methyl]phenyl}-5-(trifluoromethyl)-1H-pyrazolo[3,4-c]pyridin-7-yl]methyl}cyclobutanamine], the Kd stood at 4.2 nM at WT CBL-B (36-427) and 132 nM at C-CBL (46-435). The Ki on C-CBL (residues 46-435) amounted to 244 nM; at CBL-B (residues 36-427) it was 29.4 nM.
In the case of `CC(CN)c1nc(C(F)(F)F)cc2c(-c3cccc(C4(Cc5nncn5C)COC4)c3)n[nH]c12` (single isomer, unassigned) [Example K6, (2ξ)-2-[3-(3-{3-[(4-methyl-4H-1,2,4-triazol-3-yl)methyl]oxetan-3-yl}phenyl)-5-(trifluoromethyl)-1H-pyrazolo[3,4-c]pyridin-7-yl]propan-1-amine], the Kd at WT CBL-B (36-427) came out at 11.3 nM; on C-CBL (46-435) it was 125 nM. In addition, the values for the Ki at C-CBL (residues 46-435) and at CBL-B (residues 36-427) were 78.6 nM and 26.5 nM, respectively.
As to `Cn1cnnc1CC1(c2cccc(-c3n[nH]c4c(CN[C@@H]5CCC(F)(F)C5)nc(C(F)(F)F)cc34)c2)COC1` [Example C60, (1R)-3,3-difluoro-N-{[3-(3-{3-[(4-methyl-4H-1,2,4-triazol-3-yl)methyl]oxetan-3-yl}phenyl)-5-(trifluoromethyl)-1H-pyrazolo[3,4-c]pyridin-7-yl]methyl}cyclopentan-1-amine], the Kd is 5.1 nM at WT CBL-B (36-427) and 41.7 nM on C-CBL (46-435). The Ki was found to be 57.5 nM at C-CBL (residues 46-435) and 10.7 nM on CBL-B (residues 36-427).
Consider `CC(NC1CC(F)(F)C1)c1nc(C(F)(F)F)cc2c(-c3cccc(C4(Cc5nncn5C)COC4)c3)n[nH]c12` (single isomer, unassigned) [Example C93, 3,3-difluoro-N-{(1ξ)-1-[3-(3-{3-[(4-methyl-4H-1,2,4-triazol-3-yl)methyl]oxetan-3-yl}phenyl)-5-(trifluoromethyl)-1H-pyrazolo[3,4-c]pyridin-7-yl]ethyl}cyclobutan-1-amine], for which the Kd on WT CBL-B (36-427) was found to be 2.3 nM; at C-CBL (46-435) it was 21.7 nM. In addition, the results for the Ki on C-CBL (residues 46-435) and at CBL-B (residues 36-427) were 15.9 nM and 3.6 nM, respectively.
Consider `Cn1cnnc1[C@@H](c1cccc(-c2n[nH]c3c(CN4CC[C@H](O)C4)nc(C(F)(F)F)cc23)c1)C1CCC1` [Example C77, (3S)-1-{[3-{3-[(R)-cyclobutyl(4-methyl-4H-1,2,4-triazol-3-yl)methyl]phenyl}-5-(trifluoromethyl)-1H-pyrazolo[3,4-c]pyridin-7-yl]methyl}pyrrolidin-3-ol], for which the Kd amounted to 2.5 nM on WT CBL-B (36-427) and 54.9 nM on C-CBL (46-435). Moreover, the inhibition constant Ki was 29.5 nM on C-CBL (residues 46-435) and 2.4 nM on CBL-B (residues 36-427).
On the same counts, the results for `Cn1cnnc1CC1(c2cccc(-c3n[nH]c4c(CN5CCC(F)(F)C5)nc(C(F)(F)F)cc34)c2)COC1` [Example C70, 7-[(3,3-difluoropyrrolidin-1-yl)methyl]-3-(3-{3-[(4-methyl-4H-1,2,4-triazol-3-yl)methyl]oxetan-3-yl}phenyl)-5-(trifluoromethyl)-1H-pyrazolo[3,4-c]pyridine] are 6 nM, 80 nM, 113 nM and 20.6 nM.
On to `CN1CC[C@H](Oc2nc(C(F)(F)F)cc3c(-c4cccc(C5(Cc6nncn6C)COC5)c4)n[nH]c23)C1` [Example J1, 7-{[(3S)-1-methylpyrrolidin-3-yl]oxy}-3-(3-{3-[(4-methyl-4H-1,2,4-triazol-3-yl)methyl]oxetan-3-yl}phenyl)-5-(trifluoromethyl)-1H-pyrazolo[3,4-c]pyridine], for which the Kd is 4.3 nM on WT CBL-B (36-427) and 36.7 nM at C-CBL (46-435). For the same compound, the Ki on C-CBL (residues 46-435) worked out at 58.1 nM; on CBL-B (residues 36-427) it was 13.5 nM.
On the same counts, the results for `Cn1cnnc1[C@@H](c1cccc(-c2n[nH]c3c(CN[C@@H]4CCOC4)nc(C(F)(F)F)cc23)c1)C1CCC1` [Example C104, (3R)-N-{[3-{3-[(R)-cyclobutyl(4-methyl-4H-1,2,4-triazol-3-yl)methyl]phenyl}-5-(trifluoromethyl)-1H-pyrazolo[3,4-c]pyridin-7-yl]methyl}oxolan-3-amine] are 8.2 nM, 328 nM, 218 nM and 28 nM.
With `CN[C@H](C)c1nc(C(F)(F)F)cc2c(-c3cccc(C4(Cc5nncn5C)COC4)c3)n[nH]c12` (single isomer, unassigned) [Example D38], the figures for the dissociation constant (Kd) at WT CBL-B (36-427) and on C-CBL (46-435) were 10 nM and 110 nM, respectively. Also, the figures for the Ki at C-CBL (residues 46-435) and at CBL-B (residues 36-427) were 135 nM and 34 nM, respectively.
On to `Cn1cnnc1[C@@H](c1cccc(-c2n[nH]c3c(C4CCCCN4)nc(C(F)(F)F)cc23)c1)C1CCC1` (single isomer, unassigned) [Example L1], for which the results for the Kd on WT CBL-B (36-427) and on C-CBL (46-435) were 40.7 nM and 697 nM, respectively. The figures for the inhibition constant Ki at C-CBL (residues 46-435) and on CBL-B (residues 36-427) were 439 nM and 74.2 nM, respectively.
On the same counts, the results for `CC(C)NC(C)c1nc(C(F)(F)F)cc2c(-c3cccc(C4(Cc5nncn5C)COC4)c3)n[nH]c12` (single isomer, unassigned) [Example C80, N-{(1ξ)-1-[3-(3-{3-[(4-methyl-4H-1,2,4-triazol-3-yl)methyl]oxetan-3-yl}phenyl)-5-(trifluoromethyl)-1H-pyrazolo[3,4-c]pyridin-7-yl]ethyl}propan-2-amine] are 1.7 nM, 68.5 nM, 71.5 nM and 10.1 nM.
In the case of `CC(CN)c1nc(C(F)(F)F)cc2c(-c3cccc(C4(Cc5nncn5C)COC4)c3)n[nH]c12` (single isomer, unassigned) [Example K7, (2ξ)-2-[3-(3-{3-[(4-methyl-4H-1,2,4-triazol-3-yl)methyl]oxetan-3-yl}phenyl)-5-(trifluoromethyl)-1H-pyrazolo[3,4-c]pyridin-7-yl]propan-1-amine], the Kd on WT CBL-B (36-427) amounted to 8 nM; on C-CBL (46-435) it was 94.9 nM. Further, the Ki at C-CBL (residues 46-435) came out at 97.8 nM; at CBL-B (residues 36-427) it was 26.6 nM.
With `Cn1cnnc1[C@@H](c1cccc(-c2n[nH]c3c(CN[C@H]4CC[C@H](O)C4)nc(C(F)(F)F)cc23)c1)C1CCC1` [Example D86], the Kd at WT CBL-B (36-427) was determined as 6.4 nM; on C-CBL (46-435) it was 161 nM. The Ki was 106 nM on C-CBL (residues 46-435) and 16.1 nM at CBL-B (residues 36-427).
For `Cn1cnnc1[C@@H](c1cccc(-c2n[nH]c3c(CNC4CCOCC4)nc(C(F)(F)F)cc23)c1)C1CCC1` [Example D85], in that order: 6.9 nM, 241 nM, 237 nM and 23.4 nM.
With `CC(C)NCc1nc(C(F)(F)F)cc2c(-c3cccc([C@H](c4nncn4C)C4CCC4)c3)n[nH]c12` [Example D80], the Kd at WT CBL-B (36-427) came out at 9.5 nM; at C-CBL (46-435), 306 nM. In addition, the figures for the Ki at C-CBL (residues 46-435) and at CBL-B (residues 36-427) were 181 nM and 23 nM, respectively.

(Values after patent publication US20260125375A1 (Pfizer Inc., priority 2022, published 2026).)
